The text below walks through data of patent US20210230131A1, “POLYAMINO BIARYL COMPOUNDS AND THEIR USE” (INSERM (INSTITUT NATIONAL DE LA SANTÉ ET DE LA RECHERCHE …, priority 2018, published 2021).

By IC50 is commonly meant the concentration that inhibits the measured activity by half. Low readings indicate higher potency, high ones lower potency.

For one assay, the system named is Aβ1-40 peptide secretion. The assay can be described thus: Quantification of secreted Aβ1-40 by ELISA in SY5Y-APP695WT cells. Format: cell-based. The settings on record: Homo sapiens; concentration inhibiting 50% of Aβ1-40 peptide secretion in SY5Y cells; 24 h treatment; mean ± SD of at least two experiments in triplicate. The method, then:
(§1) Cell culture and treatment. The human neuroblastoma cell line […] was maintained in Dulbecco's modified Eagle medium (DMEM, high glucose, pyruvate-GIBCO by Life Technologies) supplemented with 10% foetal bovine serum, 2 mM L-glutamine, 1 mM non-essential amino acids and penicillin/streptomycin (GIBCO by Life Technologies) at 37° C. in a 5% CO2 humidified incubator. […] cells were maintained in 75 cm^2 culture flasks (Falcon) with supplemented DMEM medium until they reached 80% of confluence 24 h before treatment. For compounds treatment, a 10 mM stock solution was diluted in freshly supplemented DMEM medium to obtain the precise final concentration of drug. Bafilomycin A1 (BafA1), the vacuolar […] type H+ ATPase inhibitor, was purchased from Merck Millipore and was used at a final dilution of 100 nM. For drug treatment, cells were plated at a rate of 5·10^5 cells per well into 12-well plates (Falcon) and cultured with 1 mL supplemented DMEM cell medium for 24 h before drug exposure. The following day, cell medium was replaced with fresh medium containing drugs diluted at the indicated concentrations. Cells were treated for 24 h. At the end of treatments, the cell medium was collected and kept at -80° C. until use for dosage. Then, cells were rinsed once with PBS and extracted in 100 μL of Laemmli buffer (10 mM Tris, 20% glycerol and 2% Sodium dodecyl sulfate) using a cell-scraper. The cell lysate was further sonicated (30 pulses of 0.5 s, 60 Hz) for 5 min. Total protein concentration was determined using the Pierce BCA Protein Assay Kit (Thermo scientific) according to the manufacturer's instructions. Samples were stored at -80° C. until analysis. Quantification of secreted Aβ1-40/1-42 and sAPPα/sAPPβ. Conditioned media of […] collected at the end of treatments were centrifuged at 1000 g for 5 min to eliminate cells debris. Aβ1-40 and Aβ1-42 peptide concentrations in […] were determined using amyloid-beta 40 and 42 Human ELISA kits (Invitrogen) according to the manufacturer's instructions after 1:10 and 1:2 dilutions of supernatants in ELISA buffer, respectively. sAPPα and sAPPβ concentrations in ng/mL were determined using the sAPPα/sAPPβ kit (Meso Scale Diagnostics, MSD®) according to the manufacturer's instructions. Compounds of the invention (compounds 24-37, 41, 44 and 51-58) were evaluated for their ability to modulate APP processing on SY5Y human neuroblastoma cell line stably expressing the neuronal isoform of human wild-type APP695 (SYSY-APPwt). Aβ levels (Aβ1-40 and Aβ1-42) after treatment with reference and tested compounds were measured by ELISA (Table 2). […] APP carboxy-terminal fragments (αCTFs and AICD) were measured by Western blot and quantified. The effect of reference and tested compounds on αCTFs and AICD are expressed as the intensity of corresponding western-blot bands resulting from the secretase cleavages.
(ELISA stands for enzyme-linked immunosorbent assay.)

Another assay relates to Aβ1-42 peptide secretion. Briefly: Quantification of secreted Aβ1-42 by ELISA in SY5Y-APP695WT cells. Format: cell-based. The settings on record: Homo sapiens; concentration inhibiting 50% of Aβ1-42 peptide secretion in SY5Y cells; 24 h treatment; mean ± SD of at least two experiments in triplicate. The method, then: as §1
The next assay relates to AICD. Briefly: AICD by Western blot in SY5Y-APP695WT cells. Format: cell-based, human. Particulars: AICD increase compared to chloroquine ([AICD]compound/[AICD]CQ) at 3 μM; mean of at least three experiments. From the text:
(§2) Antibodies. Primary antibodies used in this study for western-blot analysis included a homemade rabbit antiserum against the last 17 amino acids of human APP protein sequence, named APP-Cter-C17 (1/5000 in TBS-M). Anti-β-actin (1/10 000 in TBS-M) was obtained from Sigma. Anti-LC3B (1/2000 in TBS-BSA) and anti-p62/SQSTM1 (1/2000 in TBS-M) antibodies were purchased from Cell Signaling Technology. Secondary antibodies (peroxidase-labeled goat anti-rabbit IgG, 1/5000 or peroxidase-labeled horse anti-mouse IgG, 1/50000 in TBS-T) were obtained from Vector Laboratories.
(§3) Cell culture and treatment. The human neuroblastoma cell line SY5Y-APP^695WT was maintained in Dulbecco's modified Eagle medium (DMEM, high glucose, pyruvate—GIBCO by Life Technologies) supplemented with 10% foetal bovine serum, 2 mM L-glutamine, 1 mM non-essential amino acids and penicillin/streptomycin (GIBCO by Life Technologies) at 37° C. in a 5% CO2 humidified incubator. SY5Y-APP^695WT cells were maintained in 75 cm^2 culture flasks (Falcon) with supplemented DMEM medium until they reached 80% of confluence 24 h before treatment.
(§4) For drug treatment, cells were plated at a rate of 5·10^5 cells per well into 12-well plates (Falcon) and cultured with 1 mL supplemented DMEM cell medium for 24 h before drug exposure. The following day, cell medium was replaced with fresh medium containing drugs diluted at the indicated concentrations. Cells were treated for 24 h. At the end of treatments, the cell medium was collected and kept at −80° C. until use for dosage. Then, cells were rinsed once with PBS and extracted in 100 μL of Laemmli buffer (10 mM Tris, 20% glycerol and 2% Sodium dodecyl sulfate) using a cell-scraper. The cell lysate was further sonicated (30 pulses of 0.5 s, 60 Hz) for 5 min. Total protein concentration was determined using the Pierce BCA Protein Assay Kit (Thermo scientific) according to the manufacturer's instructions. Samples were stored at −80° C. until analysis.
(§5) Western Blot Analysis. Cell protein lysates were prepared for western-blot analysis by diluting the sample with 1 volume of NuPAGE® lithium dodecyl sulfate (LDS) 2× sample buffer supplemented with 20% NuPAGE® sample reducing agents (Invitrogen). Samples were heat 10 min at 100° C. 10 μg of total proteins per well were loaded onto a precast 4-12% Criterion XT Bis-Tris polyacrylamide gel (Bio-Rad) and electrophoresis was achieved after applying a tension of 150 V during 90 min using a Criterion electrophoresis Cell with the NuPAGE® MOPS SDS running buffer (1×). Proteins were transferred to a nitrocellulose membrane of […] pore size (G&E Healthcare) using the Criterion blotting system and applying a tension of 100 V for 45 min. To resolve proteins of low molecular weights such as carboxy-terminal fragments of APP, 12% Criterion XT Bis-Tris polyacrylamide gels (Bio-Rad) were used and electrophoresis was performed during 70 min at 150 V in a NuPAGE® MES SDS running buffer (1×). Proteins were transferred to a nitrocellulose membrane of 0.2 μm pore size (G&E Healthcare) at 100 V for 40 min. Molecular weights calibration was achieved using molecular weight markers (Novex and Magic Marks, Life Technologies). Protein transfer and quality were determined by a reversible Ponceau Red coloration (0.2% Xylidine Ponceau Red and 3% Trichloroacetic acid). Membranes were then blocked in 25 mM Tris-HCl pH 8.0, 150 mM NaCl, 0.1% Tween-20 (v/v) (TBS-T) and 5% (w/v) of skimmed milk (TBS-M) or 5% (w/v) of bovine serum albumin (TBS-BSA) depending on the antibody during 1 h. Membrane was rinsed three-times 10 min in TBS-T before incubation with the primary antibody overnight at 4° C. Membrane was rinsed 3 times 10 min with TBS-T and then incubated with the secondary antibody for 45 min at room temperature (RT). […] Quantifications of protein expression levels were performed with ImageJ Software (NIH). […]
(In general: Immunoblotting shows a protein as a band on a membrane.)

The subject of another assay is CTFα. Briefly: APP carboxy-terminal fragment αCTF by Western blot in SY5Y-APP695WT cells. Particulars: CTFα increase compared to chloroquine ([CTF]compound/[CTF]CQ) at 3 μM; mean of at least three experiments. Format: cell-based, human.
Source text: as §2, §3, §4, §5

In the case of `CN(C)Cc1ccccc1-c1ccc(NCCCCN2CCCCC2)c(OCCN2CCCCC2)c1` [Compound 36, 2′-((Dimethylamino)methyl)-N-(4-(piperidin-1-yl)butyl)-3-(2-(piperidin-1-yl)ethoxy)-[1,1′-biphenyl]-4-amine], the half-maximal inhibitory concentration (IC50) stood at 1.7 ± 0.3 µM in the assay on Aβ1-40 peptide secretion and 1.6 ± 0.8 µM in the assay with Aβ1-42 peptide secretion. For the same compound, the “AICD vs CQ (3 μM)” value with AICD is on record as 3.0. Further, the “CTFα vs CQ (3 μM)” value with CTFα turned out to be 4.2.
As for `c1ccc(-c2ccc(NCCCN3CCCCC3)c(OCCN3CCCCC3)c2)cc1` [Compound 37, 3-(2-(Piperidin-1-yl)ethoxy)-N-(3-(piperidin-1-yl)propyl)-[1,1′-biphenyl]-4-amine], the results for the IC50 with Aβ1-40 peptide secretion and in the assay with Aβ1-42 peptide secretion were 5.2 ± 0.1 µM and 4 ± 0.4 µM, respectively. The “AICD vs CQ (3 μM)” value in the assay with AICD stood at 2.1. The “CTFα vs CQ (3 μM)” value in the assay on CTFα is reported as 2.4.
For `CN(C)Cc1ccccc1-c1cccc(OCCN2CCCCC2)c1` [Compound 41, N,N-Dimethyl-1-(3′-(2-(piperidin-1-yl)ethoxy)-[1,1′-biphenyl]-2-yl)methanamine] the same measures were 1.5 ± 0.3 µM, 1.2 ± 0.3 µM, 0.7 and 0.6.
In the case of `CN(C)Cc1ccccc1-c1ccc(NCCCN2CCCCC2)cc1` [Compound 44, 2′-((Dimethylamino)methyl)-N-(3-(piperidin-1-yl)propyl)-[1,1′-biphenyl]-4-amine], the results for the IC50 with Aβ1-40 peptide secretion and in the assay with Aβ1-42 peptide secretion were 3.9 ± 1 µM and 3.6 ± 0.1 µM, respectively. Further, the “AICD vs CQ (3 μM)” value with AICD was determined as 0.8. The “CTFα vs CQ (3 μM)” value with CTFα is 0.9.
As for `CN(C)Cc1ccn(-c2ccc(NCCCN3CCCCC3)c(OCCN3CCCCC3)c2)c1` [Compound 51, 4-(3-[(Dimethylamino)methyl]-1H-pyrrol-1-yl)-2-[2-(piperidin-1-yl)ethoxy]-N-[3-(piperidin-1-yl)propyl]aniline], the IC50 with Aβ1-40 peptide secretion came out at 5 ± 0.9 µM; in the assay with Aβ1-42 peptide secretion, 6.5 ± 2 µM. The “AICD vs CQ (3 μM)” value in the assay with AICD is 2.0. The “CTFα vs CQ (3 μM)” value in the assay with CTFα stood at 3.6.
For `c1cn(-c2ccc(NCCCN3CCCCC3)c(OCCN3CCCCC3)c2)cc1CN1CCCCC1` [Compound 52, 2-[2-(Piperidin-1-yl)ethoxy]-N-[3-(piperidin-1-yl)propyl]-4-[3-(piperidin-1-ylmethyl)-1H-pyrrol-1-yl]aniline] the same measures were 3.7 ± 1.3 µM, 5 ± 0.3 µM, 1.2 and 3.3.
Consider `c1cn(-c2ccc(NCCCN3CCCCC3)c(OCCN3CCCCC3)c2)cc1CN1CCOCC1` [Compound 53, 4-[3-(Morpholin-4-ylmethyl)-1H-pyrrol-1-yl]-2-[2-(piperidin-1-yl)ethoxy]-N-[3-(piperidin-1-yl)propyl]aniline], for which the IC50 in the assay on Aβ1-40 peptide secretion was found to be 3.3 ± 0.2 µM; in the assay on Aβ1-42 peptide secretion, 3.5 ± 1.1 µM. In the assay on AICD, the “AICD vs CQ (3 μM)” value was 3.3. Besides, in the assay on CTFα, the “CTFα vs CQ (3 μM)” value is 1.7.
Turning to `CN(C)CCCNc1ccc(-n2ccc(CN(C)C)c2)cc1OCCN1CCCCC1` [Compound 55, 4-(3-[(dimethylamino)methyl]-1H-pyrrol-1-yl)-N-[3-(dimethylamino)propyl]-2-[2-(piperidin-1-yl)ethoxy]aniline], the IC50 came out at 6.1 ± 0.7 µM in the assay with Aβ1-40 peptide secretion and 8 ± 1.6 µM in the assay with Aβ1-42 peptide secretion. The “AICD vs CQ (3 μM)” value with AICD was 0.8. Further, the “CTFα vs CQ (3 μM)” value in the assay with CTFα is given as 1.2.
As to `CN(C)CCCNc1ccc(-n2ccc(CN3CCCCC3)c2)cc1OCCN1CCCCC1` [Compound 56, N-[3-(Dimethylamino)propyl]-2-[2-(piperidin-1-yl)ethoxy]-4-[3-(piperidin-1-ylmethyl)-1H-pyrrol-1-yl]aniline], the IC50 with Aβ1-40 peptide secretion is 5.3 ± 0.1 µM; in the assay with Aβ1-42 peptide secretion, 6.3 ± 0.7 µM. Further, in the assay on AICD, the “AICD vs CQ (3 μM)” value came out at 2.7. Also, the “CTFα vs CQ (3 μM)” value in the assay with CTFα is 2.5.
Regarding `CN(C)CCCNc1ccc(-n2ccc(CN3CCOCC3)c2)cc1OCCN1CCCCC1` [Compound 57, N-[3-(Dimethylamino)propyl]-4-[3-(morpholine-4-ylmethyl)-1H-pyrrol-1-yl]-2-[2-(piperidin-1-yl)ethoxy]aniline], the figures for the IC50 with Aβ1-40 peptide secretion and with Aβ1-42 peptide secretion were 2.8 ± 1.1 µM and 3.4 ± 2 µM, respectively. In addition, the “AICD vs CQ (3 μM)” value in the assay with AICD amounted to 2.6. The “CTFα vs CQ (3 μM)” value in the assay on CTFα amounted to 2.2.
In the case of `CN(C)CCCNc1ccc(-n2ccc(CN3CCN(C)CC3)c2)cc1OCCN1CCCCC1` [Compound 58, N-[3-(dimethylamino)propyl]-4-(3-[(4-methylpiperazin-1-yl)methyl]-1H-pyrrol-1-yl}-2-[2-(piperidin-1-yl)ethoxy]aniline], the IC50 came out at 5.1 ± 1.3 µM in the assay on Aβ1-40 peptide secretion and 5.4 ± 0.4 µM in the assay on Aβ1-42 peptide secretion. Moreover, the “AICD vs CQ (3 μM)” value in the assay on AICD was determined as 1.8. Also, the “CTFα vs CQ (3 μM)” value in the assay on CTFα is reported as 3.0.
